Literature values, collected in US20070142460A1, “Compounds, compositions and methods” (priority 2003, published 2007).

System: A549 cells

For O=c1[nH]cc(F)c(=O)[nH]1 [5-fluorouracil], the GI50 is given as 1000 nM.

In the case of COc1cccc2c1C(=O)c1c(O)c3c(c(O)c1C2=O)C[C@@](O)(C(=O)CO)C[C@@H]3O[C@H]1C[C@H](N)[C@H](O)[C@H](C)O1 [doxorubicin], the GI50 is listed as 63 nM.

In the case of NC(=O)NO [hydroxyurea], the GI50 is given as 500000 nM.

For CC(=O)O[C@H]1C(=O)[C@@]2(C)[C@H]([C@H](OC(=O)c3ccccc3)[C@]3(O)C[C@H](OC(=O)[C@H](O)[C@@H](NC(=O)c4ccccc4)c4ccccc4)C(C)=C1C3(C)C)[C@]1(OC(C)=O)CO[C@@H]1C[C@@H]2O [paclitaxel], the GI50 is listed as 4 nM.
